Holding throughout (type): cell-based
Assay [1] deals with T1, GLP-1 receptor (Homo sapiens, UniProt P43220). The experiment in a line: HitHunter cAMP assay, GLP-1 receptor. The following applies: for EC50: CHO cells stably expressing human GLP-1 receptor, cAMP accumulation, 30 min, read-out: EC50 GLP-1R; for Emax: CHO cells, cAMP, normalized to maximum signal from GLP-1 (high) and DMSO (low), read-out: Emax GLP-1R. A general note: Cyclic AMP is a second messenger, typically raised through Gs and lowered through Gi signalling.
T1 sequence (P43220 24-463): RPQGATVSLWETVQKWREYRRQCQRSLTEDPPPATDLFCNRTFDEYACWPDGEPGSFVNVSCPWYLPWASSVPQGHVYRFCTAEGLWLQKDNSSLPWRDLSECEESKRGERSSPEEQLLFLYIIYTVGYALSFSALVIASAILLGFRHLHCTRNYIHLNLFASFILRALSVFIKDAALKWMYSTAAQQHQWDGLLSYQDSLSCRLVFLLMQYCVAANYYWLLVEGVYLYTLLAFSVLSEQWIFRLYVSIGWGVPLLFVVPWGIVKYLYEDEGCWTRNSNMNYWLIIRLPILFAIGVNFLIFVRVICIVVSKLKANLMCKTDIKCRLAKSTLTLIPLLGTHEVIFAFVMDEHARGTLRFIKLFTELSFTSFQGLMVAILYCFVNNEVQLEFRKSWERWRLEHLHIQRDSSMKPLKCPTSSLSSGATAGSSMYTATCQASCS

Assay [2] deals with T2, GIP receptor (Homo sapiens, UniProt P48546).
T2 sequence (P48546 22-466): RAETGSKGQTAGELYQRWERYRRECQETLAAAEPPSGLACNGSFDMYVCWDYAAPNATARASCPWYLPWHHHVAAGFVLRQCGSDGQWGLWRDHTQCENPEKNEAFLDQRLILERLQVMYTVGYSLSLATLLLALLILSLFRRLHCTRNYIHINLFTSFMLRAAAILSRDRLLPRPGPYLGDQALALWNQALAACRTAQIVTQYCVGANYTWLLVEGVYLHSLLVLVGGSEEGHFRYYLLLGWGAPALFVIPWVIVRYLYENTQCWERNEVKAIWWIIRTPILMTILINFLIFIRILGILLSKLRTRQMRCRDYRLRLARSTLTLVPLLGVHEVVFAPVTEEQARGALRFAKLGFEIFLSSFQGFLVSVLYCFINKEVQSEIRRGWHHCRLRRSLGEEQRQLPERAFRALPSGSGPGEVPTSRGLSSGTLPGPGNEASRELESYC
The experiment in a line: HitHunter cAMP assay, GIP receptor. The following applies: for EC50: CHO cells stably expressing GIP receptor, cAMP accumulation, 30 min, read-out: EC50 GIP-1R; for Emax: CHO cells, cAMP, normalized to maximum signal from GIP (high) and DMSO (low), read-out: Emax GIP-1R.

The target of assay [3] is T2, GIP receptor. In words: PathHunter β-arrestin assay, GIP receptor. On the set-up: host or cells: PathHunter CHO-K1 GIPR β-Arrestin Cell Line. The following applies: β-arrestin-2 recruitment, PathHunter CHO-K1 GIPR β-Arrestin Cell Line, 90 min at 37° C.; normalized to GIP; read-out: GIPR β Arrestin EC50. In general terms: Recruitment of arrestin is a read-out of receptor activation apart from second messengers.

Assay [4] concerns the target T1, GLP-1 receptor. In words: PathHunter β-arrestin assay, GLP-1 receptor. Set-up: host or cells: PathHunter CHO-K1 GLP1R β-Arrestin Cell Line. The following applies: β-arrestin-2 recruitment, PathHunter CHO-K1 GLP1R β-Arrestin Cell Line, 90 min at 37° C.; normalized to GLP-1; read-out: GLP-1R β Arrestin EC50.

EC50 and Emax data for five compounds are collected here from patent US12281149B2, “Modulators of G-protein coupled receptors” (priority 2021, dated 2025).

*1 amine or outer side, *2 acyl side, *3 side chain or, on linkers, in order; H or OH if unused. Where a SMILES comes first, the peptide text is derived from it. Side-chain parts run from the residue outwards. [ ]: non-standard residue; d: D form. The star is where a group is joined. Isobutyryl(2-(3-CN-5-F-Ph)) = CC(C)(C(=O)*)c1cc(F)cc(C#N)c1; C20 diacid = O=C(O)CCCCCCCCCCCCCCCCCCC(=O)*; γGlu = O=C(O)[C@H](CCC(=O)[*:2])N[*:1]; Phe(2-F) = N[C@@H](Cc1ccccc1F)C(=O)O; αMeF = C[C@](N)(Cc1ccccc1)C(=O)O; X26 = O=C(C1(c2ccccc2)CCCC1)*; X60 = O=C(C1(c2cccnc2)CCCC1)*; AEEA = NCCOCCOCC(=O)O; Aib = CC(C)(N)C(=O)O; βAla = NCCC(=O)O Where only a bound is given, the exact number is not on record here.

One may read the EC50 as the concentration giving half of the maximal effect. The term Emax denotes the maximal effect, on the per cent scale that the assay sets. For `CC[C@H](C)[C@H](NC(=O)[C@H](CC(C)C)NC(=O)[C@H](Cc1c[nH]c2ccccc12)NC(=O)[C@H](CCC(N)=O)NC(=O)[C@@H](NC(=O)[C@H](Cc1ccccc1)NC(=O)[C@H](C)NC(=O)[C@H](CCCCNC(=O)COCCOCCNC(=O)COCCOCCNC(=O)CC[C@H](NC(=O)CCCCCCCCCCCCCCCCCCC(=O)O)C(=O)O)NC(=O)[C@H](CCC(N)=O)NC(=O)[C@H](C)NC(=O)[C@@H](NC(=O)[C@H](CCCCN)NC(=O)[C@H](CC(=O)O)NC(=O)[C@H](CC(C)C)NC(=O)C(C)(C)NC(=O)[C@@H](NC(=O)[C@H](CO)NC(=O)[C@H](Cc1ccc(O)cc1)NC(=O)[C@H](CC(=O)O)NC(=O)[C@H](CO)NC(=O)[C@@H](NC(=O)[C@H](Cc1ccccc1F)NC(=O)[C@@H](NC(=O)CNC(=O)[C@H](CCC(=O)O)NC(=O)CCNC(=O)C1(c2cccnc2)CCCC1)[C@@H](C)O)[C@@H](C)O)[C@@H](C)CC)[C@@H](C)CC)C(C)C)C(=O)N[C@@H](C)C(=O)NCC(=O)NCC(=O)N1CCC[C@H]1C(=O)N[C@@H](CO)C(=O)N[C@@H](CO)C(=O)NCC(=O)N[C@@H](C)C(=O)N1CCC[C@H]1C(=O)N1CCC[C@H]1C(=O)N1CCC[C@H]1C(=O)N[C@@H](CO)C(N)=O` [Compound 231] ({X60-βAla}-EGT[Phe(2-F)]TSDYSI[Aib]LDKIAQK([AEEA-AEEA-γGlu-C20 diacid])AFVQWLIAGGPSSGAPPPS-NH2), the concentration giving a half-maximal response (EC50) is 0.1 to 1 nM at GLP-1 receptor [1], 0.1 to 1 nM on GIP receptor [2], above 1000 nM at GIP receptor [3] and above 1000 nM on GLP-1 receptor [4]. Also, the maximum response (Emax) on GLP-1 receptor [1] was found to be 111%; at GIP receptor [2] it was 110%.

Take `CC[C@H](C)[C@H](NC(=O)[C@H](CC(C)C)NC(=O)[C@H](Cc1c[nH]c2ccccc12)NC(=O)[C@H](CCC(N)=O)NC(=O)[C@@H](NC(=O)[C@H](Cc1ccccc1)NC(=O)[C@H](C)NC(=O)[C@H](CCCCNC(=O)COCCOCCNC(=O)COCCOCCNC(=O)CC[C@H](NC(=O)CCCCCCCCCCCCCCCCCCC(=O)O)C(=O)O)NC(=O)[C@H](CCC(N)=O)NC(=O)[C@H](C)NC(=O)[C@@H](NC(=O)[C@H](CCCCN)NC(=O)[C@H](CC(=O)O)NC(=O)[C@H](CC(C)C)NC(=O)C(C)(C)NC(=O)[C@@H](NC(=O)[C@H](CO)NC(=O)[C@H](Cc1ccc(O)cc1)NC(=O)[C@H](CC(=O)O)NC(=O)[C@H](CO)NC(=O)[C@@H](NC(=O)[C@H](Cc1ccccc1F)NC(=O)[C@@H](NC(=O)CNC(=O)[C@H](CCC(=O)O)NC(=O)CCNC(=O)C(C)(C)c1cc(F)cc(C#N)c1)[C@@H](C)O)[C@@H](C)O)[C@@H](C)CC)[C@@H](C)CC)C(C)C)C(=O)N[C@@H](C)C(=O)NCC(=O)NCC(=O)N1CCC[C@H]1C(=O)N[C@@H](CO)C(=O)N[C@@H](CO)C(=O)NCC(=O)N[C@@H](C)C(=O)N1CCC[C@H]1C(=O)N1CCC[C@H]1C(=O)N1CCC[C@H]1C(=O)N[C@@H](CO)C(N)=O` [Compound 233] ({Isobutyryl(2-(3-CN-5-F-Ph))-βAla}-EGT[Phe(2-F)]TSDYSI[Aib]LDKIAQK([AEEA-AEEA-γGlu-C20 diacid])AFVQWLIAGGPSSGAPPPS-NH2): the EC50 is 0.1 to 1 nM at GLP-1 receptor [1], 0.1 to 1 nM at GIP receptor [2], below 1000 nM on GIP receptor [3] and above 1000 nM on GLP-1 receptor [4]. Also, the results for the Emax on GLP-1 receptor [1] and at GIP receptor [2] were 121% and 109%, respectively.

On to `CC[C@H](C)[C@H](NC(=O)[C@H](CC(C)C)NC(=O)[C@H](Cc1c[nH]c2ccccc12)NC(=O)[C@H](CCC(N)=O)NC(=O)[C@@H](NC(=O)[C@H](Cc1ccccc1)NC(=O)[C@H](C)NC(=O)[C@H](CCCCNC(=O)COCCOCCNC(=O)COCCOCCNC(=O)CC[C@H](NC(=O)CCCCCCCCCCCCCCCCCCC(=O)O)C(=O)O)NC(=O)[C@H](CCC(N)=O)NC(=O)[C@H](C)NC(=O)[C@@H](NC(=O)[C@H](CCCCN)NC(=O)[C@H](CC(=O)O)NC(=O)[C@H](CC(C)C)NC(=O)C(C)(C)NC(=O)[C@@H](NC(=O)[C@H](CO)NC(=O)[C@H](Cc1ccc(O)cc1)NC(=O)[C@H](CC(=O)O)NC(=O)[C@H](CO)NC(=O)[C@@H](NC(=O)[C@](C)(Cc1ccccc1)NC(=O)[C@@H](NC(=O)CNC(=O)[C@H](CCC(=O)O)NC(=O)CCNC(=O)C1(c2cccnc2)CCCC1)[C@@H](C)O)[C@@H](C)O)[C@@H](C)CC)[C@@H](C)CC)C(C)C)C(=O)N[C@@H](C)C(=O)NCC(=O)NCC(=O)N1CCC[C@H]1C(=O)N[C@@H](CO)C(=O)N[C@@H](CO)C(=O)NCC(=O)N[C@@H](C)C(=O)N1CCC[C@H]1C(=O)N1CCC[C@H]1C(=O)N1CCC[C@H]1C(=O)N[C@@H](CO)C(N)=O` [Compound 234] ({X60-βAla}-EGT[αMeF]TSDYSI[Aib]LDKIAQK([AEEA-AEEA-γGlu-C20 diacid])AFVQWLIAGGPSSGAPPPS-NH2), for which the EC50 is 0.1 to 1 nM on GLP-1 receptor [1], 0.1 to 1 nM at GIP receptor [2], below 1000 nM on GIP receptor [3] and above 1000 nM at GLP-1 receptor [4]. Further, the Emax at GLP-1 receptor [1] is 105%; at GIP receptor [2], 112%.

As for `CC[C@H](C)[C@H](NC(=O)[C@H](CC(C)C)NC(=O)[C@H](Cc1c[nH]c2ccccc12)NC(=O)[C@H](CCC(N)=O)NC(=O)[C@@H](NC(=O)[C@H](Cc1ccccc1)NC(=O)[C@H](C)NC(=O)[C@H](CCCCNC(=O)COCCOCCNC(=O)COCCOCCNC(=O)CC[C@H](NC(=O)CCCCCCCCCCCCCCCCCCC(=O)O)C(=O)O)NC(=O)[C@H](CCC(N)=O)NC(=O)[C@H](C)NC(=O)[C@@H](NC(=O)[C@H](CCCCN)NC(=O)[C@H](CC(=O)O)NC(=O)[C@H](CC(C)C)NC(=O)C(C)(C)NC(=O)[C@@H](NC(=O)[C@H](CO)NC(=O)[C@H](Cc1ccc(O)cc1)NC(=O)[C@H](CC(=O)O)NC(=O)[C@H](CO)NC(=O)[C@@H](NC(=O)[C@](C)(Cc1ccccc1)NC(=O)[C@@H](NC(=O)CNC(=O)[C@H](CCC(=O)O)NC(=O)CCNC(=O)C(C)(C)c1cc(F)cc(C#N)c1)[C@@H](C)O)[C@@H](C)O)[C@@H](C)CC)[C@@H](C)CC)C(C)C)C(=O)N[C@@H](C)C(=O)NCC(=O)NCC(=O)N1CCC[C@H]1C(=O)N[C@@H](CO)C(=O)N[C@@H](CO)C(=O)NCC(=O)N[C@@H](C)C(=O)N1CCC[C@H]1C(=O)N1CCC[C@H]1C(=O)N1CCC[C@H]1C(=O)N[C@@H](CO)C(N)=O` [Compound 235] ({Isobutyryl(2-(3-CN-5-F-Ph))-βAla}-EGT[αMeF]TSDYSI[Aib]LDKIAQK([AEEA-AEEA-γGlu-C20 diacid])AFVQWLIAGGPSSGAPPPS-NH2), the EC50 at GLP-1 receptor [1] was 0.1 to 1 nM; at GIP receptor [2], 0.1 to 1 nM; on GIP receptor [3], below 1000 nM; on GLP-1 receptor [4], above 1000 nM. Further, the results for the Emax at GLP-1 receptor [1] and at GIP receptor [2] were 122% and 108%, respectively.

For the compound `CC[C@H](C)[C@H](NC(=O)[C@H](CC(C)C)NC(=O)[C@H](Cc1c[nH]c2ccccc12)NC(=O)[C@H](CCC(N)=O)NC(=O)[C@@H](NC(=O)[C@H](Cc1ccccc1)NC(=O)[C@H](C)NC(=O)[C@H](CCCCNC(=O)COCCOCCNC(=O)COCCOCCNC(=O)CC[C@H](NC(=O)CCCCCCCCCCCCCCCCCCC(=O)O)C(=O)O)NC(=O)[C@H](CCC(N)=O)NC(=O)[C@H](C)NC(=O)[C@@H](NC(=O)[C@H](CCCCN)NC(=O)[C@H](CC(=O)O)NC(=O)[C@H](CC(C)C)NC(=O)C(C)(C)NC(=O)[C@@H](NC(=O)[C@H](CO)NC(=O)[C@H](Cc1ccc(O)cc1)NC(=O)[C@H](CC(=O)O)NC(=O)[C@H](CO)NC(=O)[C@@H](NC(=O)[C@H](Cc1ccccc1)NC(=O)[C@@H](NC(=O)CNC(=O)[C@H](CCC(=O)O)NC(=O)CCNC(=O)C1(c2ccccc2)CCCC1)[C@@H](C)O)[C@@H](C)O)[C@@H](C)CC)[C@@H](C)CC)C(C)C)C(=O)N[C@@H](C)C(=O)NCC(=O)NCC(=O)N1CCC[C@H]1C(=O)N[C@@H](CO)C(=O)N[C@@H](CO)C(=O)NCC(=O)N[C@@H](C)C(=O)N1CCC[C@H]1C(=O)N1CCC[C@H]1C(=O)N1CCC[C@H]1C(=O)N[C@@H](CO)C(N)=O` [Compound 236] ({X26-βAla}-EGTFTSDYSI[Aib]LDKIAQK([AEEA-AEEA-γGlu-C20 diacid])AFVQWLIAGGPSSGAPPPS-NH2), the EC50 is 0.1 to 1 nM on GLP-1 receptor [1], 1 to 10 nM on GIP receptor [2], above 1000 nM on GIP receptor [3] and above 1000 nM at GLP-1 receptor [4]. Further, the Emax on GLP-1 receptor [1] came out at 127%; at GIP receptor [2], 114%.
